These results are taken from ChEMBL document CHEMBL5576071, “Structure optimization of Cmpd-15 as negative allosteric modulators for the β2-adrenergic receptor” (Bioorg Med Chem, 2024).

The half-life is how long it takes for the measured level to halve.

In series [1] the target is Beta-2 adrenergic receptor (Homo sapiens) (UniProt P07550). Kind of series: Negative allosteric modulation of beta-2 adrenergic receptor (unknown origin) transfected in HEK293 cells assessed as decrease in cAMP accumulation at 50 uM preincubated for 20 mins followed by ISO treatment for 5 mins for by Glo sensor assay relative to 4-((2S)-3-(((S)-3-(3-bromophenyl)-1-(methylamino)-1-oxopropan-2-yl)amino)-2-(2-cyclohexyl-2-phenylacetamido)-3-oxopropyl)benzamide. The class given is functional, cell-based. To be noted: filed as negative allosteric modulator, time 25.0 min. In general terms: Cyclic AMP is a second messenger, typically raised through Gs and lowered through Gi signalling.
Chain of Beta-2 adrenergic receptor (Homo sapiens) (P07550 whole entry, looked up): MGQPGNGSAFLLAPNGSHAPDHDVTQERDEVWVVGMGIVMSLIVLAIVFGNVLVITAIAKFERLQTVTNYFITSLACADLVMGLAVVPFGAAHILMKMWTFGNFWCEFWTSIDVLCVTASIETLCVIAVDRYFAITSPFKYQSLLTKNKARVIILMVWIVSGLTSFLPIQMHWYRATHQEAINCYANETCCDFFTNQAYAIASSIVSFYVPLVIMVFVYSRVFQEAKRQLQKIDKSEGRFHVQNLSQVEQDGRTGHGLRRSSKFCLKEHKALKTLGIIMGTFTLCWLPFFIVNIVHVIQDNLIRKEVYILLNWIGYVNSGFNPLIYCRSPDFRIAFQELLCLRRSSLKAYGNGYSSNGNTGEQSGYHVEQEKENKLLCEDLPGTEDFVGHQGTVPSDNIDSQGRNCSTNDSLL

For series [2] the target is unchanged. Kind of series: Potency index, ratio of 4-((2S)-3-(((S)-3-(3-bromophenyl)-1-(methylamino)-1-oxopropan-2-yl)amino)-2-(2-cyclohexyl-2-phenylacetamido)-3-oxopropyl)benzamide Imax to test compound Imax for negative allosteric modulation of beta-2 adrenergic receptor (unknown origin) transfected in HEK293 cells assessed as decrease in cAMP accumulation at 50 uM preincubated for 20 mins followed by ISO treatment for 5 mins for by Glo sensor assay. To be noted: filed as negative allosteric modulator, time 25.0 min. The class given is functional, cell-based.

A short description of series [3]: Metabolic stability in mouse liver microsomes assessed as hepatic extraction ratio at 1 uM preincubated for 5 mins followed by NADPH addition measured for 5 to 60 mins by LC-MS/MS analysis. Format: ADME, Microsome. The following applies: time 10-65 min, read-out: ERH. Background: Microsomes from liver hold many membrane-bound enzymes, among them those of drug oxidation.

Series [4] is described as follows: Metabolic stability in human liver microsomes assessed as half life at 1 uM preincubated for 5 mins followed by NADPH addition measured for 5 to 60 mins by LC-MS/MS analysis. The class given is ADME, Microsome. To be noted: time 10-65 min.
Series [5] can be described thus: Metabolic stability in mouse liver microsomes assessed as half life at 1 uM preincubated for 5 mins followed by NADPH addition measured for 5 to 60 mins by LC-MS/MS analysis. Format: ADME, Microsome. To be noted: time 10-65 min.
Series [6] can be described thus: Metabolic stability in human liver microsomes assessed as hepatic extraction ratio at 1 uM preincubated for 5 mins followed by NADPH addition measured for 5 to 60 mins by LC-MS/MS analysis. Format: ADME, Microsome. To be noted: time 10-65 min, read-out: ERH.

As to `CNC(=O)[C@H](Cc1cccc(Br)c1)NC(=O)c1cc(-c2ccccc2)nn1Cc1ccccc1C#N`, the Imax in series [1] came to 67%. For the same molecule, the Ratio in series [2] was 0.67.

Consider `CNC(=O)[C@H](Cc1cccc(Br)c1)NC(=O)c1cc(-c2ccccc2[N+](=O)[O-])nn1Cc1cccc(Br)c1`, for which the Imax in series [1] was found to be 120%. The Ratio in series [2] was found to be 1.2.

With `CNC(=O)[C@H](Cc1cccc(Br)c1)NC(=O)c1cc(-c2ccccc2)nn1Cc1ccc(Cl)cc1`, the Imax in series [1] was found to be 114%. The Ratio in series [2] amounted to 1.14.

As to `CNC(=O)[C@H](Cc1cccc(Br)c1)NC(=O)c1cc(-c2ccccc2)nn1Cc1ccccc1F`, the Imax in series [1] is 143%. For the same molecule, the hepatic extraction ratio at 1 µM turned out to be 0.721 in series [3] and 0.835 in series [6]. In addition, the half-life at 1 µM in series [4] stood at 41.5 min; in series [5] it was 58.7 min. For the same molecule, the Ratio in series [2] was 1.43.

For `CNC(=O)[C@H](Cc1cccc(Br)c1)NC(=O)c1cc(-c2ccccc2)nn1Cc1cccc(F)c1`, the Imax in series [1] stood at 133%. The Ratio in series [2] was determined as 1.33.

For `CNC(=O)[C@H](Cc1cccc(Br)c1)NC(=O)c1cc(-c2ccccc2)nn1Cc1ccccc1Cl`, the Imax in series [1] stood at 114%. The Ratio in series [2] stood at 1.14.

On to `CNC(=O)[C@H](Cc1cccc(Br)c1)NC(=O)c1cc(-c2ccccc2)nn1Cc1ccc(F)cc1`, for which the Imax in series [1] came to 114%. Moreover, in series [2], the Ratio is 1.14.

Consider `CNC(=O)[C@H](Cc1cccc(Br)c1)NC(=O)c1cc(-c2ccc(F)cc2)nn1Cc1cccc(Br)c1`, for which the Imax in series [1] was 130%. Besides, the Ratio in series [2] turned out to be 1.3.

As to `CNC(=O)[C@H](Cc1cccc(Br)c1)NC(=O)c1cc(-c2cccc(Br)c2)nn1Cc1cccc(Br)c1`, the Imax in series [1] came out at 100%. Further, the Ratio in series [2] was found to be 1.

In the case of `CNC(=O)[C@H](Cc1cccc(Br)c1)NC(=O)[C@H](Cc1ccc(C(N)=O)cc1)NC(=O)C(c1ccccc1)C1CCCCC1` (stereo not given in full), the values for the hepatic extraction ratio at 1 µM in series [3] and in series [6] were 0.986 and 0.993, respectively. The half-life at 1 µM in series [4] was 1.53 min; in series [5], 2.19 min.

As for `CNC(=O)[C@H](Cc1cccc(Br)c1)NC(=O)c1cc(-c2ccccc2)nn1Cc1cccc(I)c1`, the Imax in series [1] worked out at 125%. Also, in series [2], the Ratio was 1.25.

For `CNC(=O)[C@H](Cc1cccc(Br)c1)NC(=O)c1cc(-c2ccccc2Br)nn1Cc1cccc(Br)c1`, in series [1], the Imax worked out at 91%. For the same molecule, the Ratio in series [2] was 0.91.

`CNC(=O)[C@H](Cc1cccc(Br)c1)NC(=O)c1cc(-c2cccc(Cl)c2)nn1Cc1cccc(Br)c1`: the Imax in series [1] was found to be 127%. Besides, the Ratio in series [2] was determined as 1.27.

In the case of `CNC(=O)[C@H](Cc1cccc(Br)c1)NC(=O)c1cc(-c2ccccc2Cl)nn1Cc1cccc(Br)c1`, in series [1], the Imax amounted to 118%. Also, in series [2], the Ratio worked out at 1.18.

With `CNC(=O)[C@H](Cc1cccc(Br)c1)NC(=O)c1cc(-c2ccc(Br)cc2)nn1Cc1cccc(Br)c1`, in series [1], the Imax worked out at 109%. For the same molecule, in series [2], the Ratio worked out at 1.09.

In the case of `CNC(=O)[C@H](Cc1cccc(Br)c1)NC(=O)c1cc(-c2ccccc2)nn1Cc1ccc(C#N)cc1`, the Imax in series [1] is 100%. Besides, in series [2], the Ratio was found to be 1.

As for `CNC(=O)[C@H](Cc1cccc(Br)c1)NC(=O)c1cc(-c2ccccc2)nn1Cc1cccc(Cl)c1`, the Imax in series [1] came out at 114%. The Ratio in series [2] was 1.14.
